According to ChEMBL document CHEMBL3046568, “Synthesis, antimicrobial and DNA cleavage studies of some 4-aryloxymethylcoumarins obtained by reaction of 4-bromomethylcoumarins with bidentate nucleophiles” (2012):
≈ marks a conversion by molar mass, not a printed value. Calls of active or inactive are those of the source. The calls are words filed in the database; no cut-off is given here.

Key:
Enterococcus faecalis = experiment: Antibacterial activity against Enterococcus faecalis MTCC 3382 after 24 hr by disk diffusion method; format: functional; conditions: for MIC: Enterococcus faecalis, MTCC 3382, 24 h
Aspergillus niger [1] = experiment: Induction of Aspergillus niger DNA cleavage at 50 ug after 2 hr by agarose gel electrophoresis
Escherichia coli [2] = experiment: Induction of Escherichia coli MTCC 1089 DNA cleavage at 50 ug after 2 hr by agarose gel electrophoresis
Staphylococcus aureus [3] = experiment: Induction of Staphylococcus aureus MTCC 3160 DNA cleavage at 50 ug after 2 hr by agarose gel electrophoresis
Fusarium oxysporum = experiment: Antifungal activity against Fusarium oxysporum after 3 to 4 days by serial dilution method; format: functional; conditions: for MIC: Fusarium oxysporum
Mucor fuscus = experiment: Antifungal activity against Mucor fuscus after 3 to 4 days by serial dilution method; format: functional; conditions: for MIC: Mucor fuscus
Penicillium chrysogenum = experiment: Antifungal activity against Penicillium chrysogenum after 3 to 4 days by serial dilution method; format: functional; conditions: for MIC: Penicillium chrysogenum
Aspergillus niger [4] = experiment: Antifungal activity against Aspergillus niger after 3 to 4 days by serial dilution method; format: functional; conditions: for MIC: Aspergillus niger
Candida albicans = experiment: Antifungal activity against Candida albicans after 3 to 4 days by serial dilution method; format: functional; conditions: for MIC: Candida albicans
Aspergillus fumigatus = experiment: Antifungal activity against Aspergillus fumigatus after 3 to 4 days by serial dilution method; format: functional; conditions: for MIC: Aspergillus fumigatus
Escherichia coli [5] = experiment: Antibacterial activity against Escherichia coli MTCC 1089 after 24 hr by disk diffusion method; format: functional; conditions: for MIC: Escherichia coli, MTCC 1089, 24 h
Klebsiella pneumoniae = experiment: Antibacterial activity against Klebsiella pneumoniae MTCC 3384 after 24 hr by disk diffusion method; format: functional; conditions: for MIC: Klebsiella pneumoniae, MTCC 3384, 24 h
Pseudomonas aeruginosa = experiment: Antibacterial activity against Pseudomonas aeruginosa MTCC 1034 after 24 hr by disk diffusion method; format: functional; conditions: for MIC: Pseudomonas aeruginosa, MTCC 1034, 24 h
Bacillus subtilis = experiment: Antibacterial activity against Bacillus subtilis MTCC 297 after 24 hr by disk diffusion method; format: functional; conditions: for MIC: Bacillus subtilis, MTCC 297, 24 h
Staphylococcus aureus [6] = experiment: Antibacterial activity against Staphylococcus aureus MTCC 3160 after 24 hr by disk diffusion method; format: functional; conditions: for MIC: Staphylococcus aureus, MTCC 3160, 24 h

Row | SMILES | MIC (Enterococcus faecalis) [µg/mL] | Activity (Aspergillus niger [1]) | Activity (Escherichia coli [2]) | Activity (Staphylococcus aureus [3]) | MIC (Fusarium oxysporum) [µg/mL] | MIC (Mucor fuscus) [µg/mL] | MIC (Penicillium chrysogenum) [µg/mL] | MIC (Aspergillus niger [4]) [µg/mL] | MIC (Candida albicans) [µg/mL] | MIC (Aspergillus fumigatus) [µg/mL] | MIC (Escherichia coli [5]) [µg/mL] | MIC (Pseudomonas aeruginosa) [µg/mL] | inhibition zone (IZ) (Enterococcus faecalis) [mm] | inhibition zone (IZ) (Mucor fuscus) [mm] | inhibition zone (IZ) (Penicillium chrysogenum) [mm] | inhibition zone (IZ) (Aspergillus niger [4]) [mm] | inhibition zone (IZ) (Candida albicans) [mm] | inhibition zone (IZ) (Aspergillus fumigatus) [mm] | inhibition zone (IZ) (Klebsiella pneumoniae) [mm] | inhibition zone (IZ) (Pseudomonas aeruginosa) [mm] | other results
1 | CC(=O)Nc1cccc(OCc2cc(=O)oc3cc(C)ccc23)c1 | 12.5 (≈ 38.7 µM) | inactive | inactive | inactive | 50 (≈ 155 µM) | 12.5 (≈ 38.7 µM) | 12.5 (≈ 38.7 µM) | 6.25 (≈ 19.3 µM) | 25 (≈ 77.3 µM) | 12.5 (≈ 38.7 µM) | 25 (≈ 77.3 µM) | 12.5 (≈ 38.7 µM) | 14 | 16 | 18 | 19 | 9 | 16 | 14 | 16 | inhibition zone (IZ) (Fusarium oxysporum): 9 mm; inhibition zone (IZ) (Escherichia coli [5]): 10 mm; MIC (Klebsiella pneumoniae): 12.5 µg/mL (≈ 38.7 µM); inhibition zone (IZ) (Bacillus subtilis): 15 mm; MIC (Bacillus subtilis): 12.5 µg/mL (≈ 38.7 µM); inhibition zone (IZ) (Staphylococcus aureus [6]): 14 mm; MIC (Staphylococcus aureus [6]): 12.5 µg/mL (≈ 38.7 µM)
2 | CCN(CC)c1cccc(OCc2cc(=O)oc3ccc(C)cc23)c1 | 6.25 (≈ 18.5 µM) | inactive | inactive | inactive | 50 (≈ 148 µM) | 12.5 (≈ 37 µM) | 12.5 (≈ 37 µM) | 12.5 (≈ 37 µM) | 25 (≈ 74.1 µM) | 12.5 (≈ 37 µM) | 50 (≈ 148 µM) | 25 (≈ 74.1 µM) | 17 | 16 | 17 | 18 | 10 | 16 | 13 | 15 | inhibition zone (IZ) (Fusarium oxysporum): 9 mm; inhibition zone (IZ) (Escherichia coli [5]): 10 mm; inhibition zone (IZ) (Bacillus subtilis): 14 mm; MIC (Bacillus subtilis): 12.5 µg/mL (≈ 37 µM); inhibition zone (IZ) (Staphylococcus aureus [6]): 15 mm; MIC (Staphylococcus aureus [6]): 12.5 µg/mL (≈ 37 µM)
3 | Cc1ccc2oc(=O)cc(COc3cccc(O)c3)c2c1 | 12.5 (≈ 44.3 µM) | inactive | inactive | inactive | 50 (≈ 177 µM) | 25 (≈ 88.6 µM) | 12.5 (≈ 44.3 µM) | 6.25 (≈ 22.1 µM) | 25 (≈ 88.6 µM) | 12.5 (≈ 44.3 µM) | 50 (≈ 177 µM) | 25 (≈ 88.6 µM) | 15 | 14 | 18 | 19 | 10 | 16 | 13 | 14 | inhibition zone (IZ) (Fusarium oxysporum): 8 mm; inhibition zone (IZ) (Escherichia coli [5]): 8 mm; MIC (Klebsiella pneumoniae): 12.5 µg/mL (≈ 44.3 µM); inhibition zone (IZ) (Bacillus subtilis): 15 mm; MIC (Bacillus subtilis): 12.5 µg/mL (≈ 44.3 µM); inhibition zone (IZ) (Staphylococcus aureus [6]): 13 mm; MIC (Staphylococcus aureus [6]): 12.5 µg/mL (≈ 44.3 µM)
4 | CC(=O)Nc1cccc(OCc2cc(=O)oc3ccc(Br)cc23)c1 | 6.25 (≈ 16.1 µM) | Active | Active | Active | 25 (≈ 64.4 µM) | 6.25 (≈ 16.1 µM) | 6.25 (≈ 16.1 µM) | 6.25 (≈ 16.1 µM) | 12.5 (≈ 32.2 µM) | 6.25 (≈ 16.1 µM) | 12.5 (≈ 32.2 µM) | 6.25 (≈ 16.1 µM) | 18 | 19 | 20 | 20 | 16 | 20 | 18 | 22 | inhibition zone (IZ) (Fusarium oxysporum): 13 mm; inhibition zone (IZ) (Escherichia coli [5]): 14 mm; MIC (Klebsiella pneumoniae): 6.25 µg/mL (≈ 16.1 µM); inhibition zone (IZ) (Bacillus subtilis): 17 mm; MIC (Bacillus subtilis): 6.25 µg/mL (≈ 16.1 µM); inhibition zone (IZ) (Staphylococcus aureus [6]): 17 mm; MIC (Staphylococcus aureus [6]): 6.25 µg/mL (≈ 16.1 µM)
5 | Cc1ccc2oc(=O)cc(COc3cccc(OCc4cc(=O)oc5ccc(C)cc45)c3)c2c1 | 12.5 (≈ 27.5 µM) | inactive | inactive | inactive | > 100 | 12.5 (≈ 27.5 µM) | 25 (≈ 55 µM) | 12.5 (≈ 27.5 µM) | 25 (≈ 55 µM) | 12.5 (≈ 27.5 µM) | > 100 | 25 (≈ 55 µM) | 16 | 16 | 16 | 17 | 9 | 17 | 12 | 13 | MIC (Klebsiella pneumoniae): 12.5 µg/mL (≈ 27.5 µM); inhibition zone (IZ) (Bacillus subtilis): 14 mm; MIC (Bacillus subtilis): 12.5 µg/mL (≈ 27.5 µM); inhibition zone (IZ) (Staphylococcus aureus [6]): 14 mm; MIC (Staphylococcus aureus [6]): 12.5 µg/mL (≈ 27.5 µM)
6 | CC(=O)Nc1cccc(OCc2cc(=O)oc3ccc4ccccc4c23)c1 | 25 (≈ 69.6 µM) | inactive | inactive | inactive | 25 (≈ 69.6 µM) | 25 (≈ 69.6 µM) | 12.5 (≈ 34.8 µM) | 6.25 (≈ 17.4 µM) | 12.5 (≈ 34.8 µM) | 12.5 (≈ 34.8 µM) | 25 (≈ 69.6 µM) | 12.5 (≈ 34.8 µM) | 10 | 15 | 18 | 19 | 15 | 17 | 15 | 18 | inhibition zone (IZ) (Fusarium oxysporum): 12 mm; inhibition zone (IZ) (Escherichia coli [5]): 13 mm; MIC (Klebsiella pneumoniae): 12.5 µg/mL (≈ 34.8 µM); inhibition zone (IZ) (Bacillus subtilis): 11 mm; MIC (Bacillus subtilis): 25 µg/mL (≈ 69.6 µM); inhibition zone (IZ) (Staphylococcus aureus [6]): 13 mm; MIC (Staphylococcus aureus [6]): 12.5 µg/mL (≈ 34.8 µM)

Now from value to molecule, other results behind:

Row | MIC (Enterococcus faecalis) [µg/mL] | Activity (Aspergillus niger [1]) | Activity (Escherichia coli [2]) | Activity (Staphylococcus aureus [3]) | MIC (Fusarium oxysporum) [µg/mL] | MIC (Mucor fuscus) [µg/mL] | MIC (Penicillium chrysogenum) [µg/mL] | MIC (Aspergillus niger [4]) [µg/mL] | MIC (Candida albicans) [µg/mL] | MIC (Aspergillus fumigatus) [µg/mL] | MIC (Escherichia coli [5]) [µg/mL] | MIC (Pseudomonas aeruginosa) [µg/mL] | SMILES | inhibition zone (IZ) (Enterococcus faecalis) [mm] | inhibition zone (IZ) (Mucor fuscus) [mm] | inhibition zone (IZ) (Penicillium chrysogenum) [mm] | inhibition zone (IZ) (Aspergillus niger [4]) [mm] | inhibition zone (IZ) (Candida albicans) [mm] | inhibition zone (IZ) (Aspergillus fumigatus) [mm] | inhibition zone (IZ) (Klebsiella pneumoniae) [mm] | inhibition zone (IZ) (Pseudomonas aeruginosa) [mm] | other results
7 | 25 (≈ 77.3 µM) | inactive | inactive | inactive | 50 (≈ 155 µM) | 25 (≈ 77.3 µM) | 6.25 (≈ 19.3 µM) | 6.25 (≈ 19.3 µM) | 25 (≈ 77.3 µM) | 12.5 (≈ 38.7 µM) | 25 (≈ 77.3 µM) | 12.5 (≈ 38.7 µM) | CC(=O)Nc1cccc(OCc2cc(=O)oc3ccc(C)cc23)c1 | 12 | 15 | 19 | 20 | 9 | 17 | 12 | 16 | inhibition zone (IZ) (Fusarium oxysporum): 10 mm; inhibition zone (IZ) (Escherichia coli [5]): 11 mm; MIC (Klebsiella pneumoniae): 12.5 µg/mL (≈ 38.7 µM); inhibition zone (IZ) (Bacillus subtilis): 15 mm; MIC (Bacillus subtilis): 12.5 µg/mL (≈ 38.7 µM); inhibition zone (IZ) (Staphylococcus aureus [6]): 14 mm; MIC (Staphylococcus aureus [6]): 12.5 µg/mL (≈ 38.7 µM)
8 | 6.25 (≈ 18 µM) | Active | Active | Active | 25 (≈ 72 µM) | 12.5 (≈ 36 µM) | 6.25 (≈ 18 µM) | 6.25 (≈ 18 µM) | 6.25 (≈ 18 µM) | 12.5 (≈ 36 µM) | 12.5 (≈ 36 µM) | 6.25 (≈ 18 µM) | O=c1cc(COc2cccc(O)c2)c2cc(Br)ccc2o1 | 18 | 18 | 19 | 21 | 17 | 18 | 19 | 23 | inhibition zone (IZ) (Fusarium oxysporum): 13 mm; inhibition zone (IZ) (Escherichia coli [5]): 15 mm; MIC (Klebsiella pneumoniae): 6.25 µg/mL (≈ 18 µM); inhibition zone (IZ) (Bacillus subtilis): 17 mm; MIC (Bacillus subtilis): 6.25 µg/mL (≈ 18 µM); inhibition zone (IZ) (Staphylococcus aureus [6]): 19 mm; MIC (Staphylococcus aureus [6]): 6.25 µg/mL (≈ 18 µM)
9 | 12.5 (≈ 33.5 µM) | inactive | inactive | inactive | 25 (≈ 66.9 µM) | 25 (≈ 66.9 µM) | 12.5 (≈ 33.5 µM) | 12.5 (≈ 33.5 µM) | 12.5 (≈ 33.5 µM) | 12.5 (≈ 33.5 µM) | 12.5 (≈ 33.5 µM) | 12.5 (≈ 33.5 µM) | CCN(CC)c1cccc(OCc2cc(=O)oc3ccc4ccccc4c23)c1 | 14 | 14 | 17 | 17 | 13 | 14 | 15 | 17 | inhibition zone (IZ) (Fusarium oxysporum): 14 mm; inhibition zone (IZ) (Escherichia coli [5]): 14 mm; MIC (Klebsiella pneumoniae): 12.5 µg/mL (≈ 33.5 µM); inhibition zone (IZ) (Bacillus subtilis): 11 mm; MIC (Bacillus subtilis): 25 µg/mL (≈ 66.9 µM); inhibition zone (IZ) (Staphylococcus aureus [6]): 13 mm; MIC (Staphylococcus aureus [6]): 12.5 µg/mL (≈ 33.5 µM)
10 | 25 (≈ 78.5 µM) | inactive | inactive | inactive | 25 (≈ 78.5 µM) | 25 (≈ 78.5 µM) | 25 (≈ 78.5 µM) | 12.5 (≈ 39.3 µM) | 12.5 (≈ 39.3 µM) | 12.5 (≈ 39.3 µM) | 25 (≈ 78.5 µM) | 6.25 (≈ 19.6 µM) | O=c1cc(COc2cccc(O)c2)c2ccc3ccccc3c2o1 | 13 | 13 | 16 | 17 | 13 | 15 | 14 | 19 | inhibition zone (IZ) (Fusarium oxysporum): 12 mm; inhibition zone (IZ) (Escherichia coli [5]): 13 mm; MIC (Klebsiella pneumoniae): 12.5 µg/mL (≈ 39.3 µM); inhibition zone (IZ) (Bacillus subtilis): 12 mm; MIC (Bacillus subtilis): 25 µg/mL (≈ 78.5 µM); inhibition zone (IZ) (Staphylococcus aureus [6]): 10 mm; MIC (Staphylococcus aureus [6]): 25 µg/mL (≈ 78.5 µM)
